The nature of series [1]: Solubility measurements by gravimetric method in solvents at 23° C. and 50° C. Type of series: physicochemical. To be noted: non-crystalline freebase; for solubility at 2 days: organic solvent or mixture, thermodynamic from solid, read-out: Solubility. Here is the method:
Solubility measurements were done by gravimetric method in 20 different solvents at two temperatures (23° C. and 50° C.). About 20-30 mg of Form A, the synthesis of which is described below, was weighed and 0.75 mL solvent was added to form a slurry. The slurry was then stirred for two days at the specified temperature. The vial was centrifuged and the supernatant was collected for solubility measurement through gravimetric method. The saturated supernatant was transferred into pre-weighed 2 mL HPLC vials and weighed again (vial+liquid). The uncapped vial was then left on a 50° C. hot plate to slowly evaporate the solvent overnight. The vials were then left in the oven at 50° C. and under vacuum to remove the residual solvent so that only the dissolved solid remained. The vial was then weighed (vial+solid). From these three weights; vial, vial+liquid and vial+solid; the weight of dissolved solid and the solvent were calculated. Then using solvent density the solubility was calculated as mg solid/mL of solvent.
20-30 mg of Form A was weighed into 2 mL vial and 500 μL MeOH solvent system as outlined in the table was added. If dissolved, more solids were added to form the slurry. The slurries were then stirred for two days. The vials were centrifuged and the supernatant was collected for solubility measurement through gravimetric method by evaporation at 50° C. XRPD analysis was conducted on the solid after filtration of the slurries.
For the sake of comparison, the solubility of Compound 1, i.e., the non-crystalline freebase, was also measured in two solvent systems to see the effect of water.

Series [2] is described as follows: Pharmacokinetic evaluation after single PO suspension dose. Type of series: in vivo, Sprague-Dawley rat. As to conditions: for AUC 0-last / Cmax: PO 200 mg/kg (free base equivalent), suspension in 0.5% methyl-cellulose, male Sprague-Dawley rats, n=6, plasma, 200 mg/kg; for AUC fold higher compared to crystalline free-base of Compound 1 / Cmax fold higher compared to crystalline free-base of Compound 1: PO suspension 200 mg/kg, fasted male Sprague-Dawley rats. Here is the method:
Single dose in suspension using Crystalline Form A micronized and unmicronized, and crystalline free base of Compound 1 were administered to male Sprague-Dawley rat at 200 mg/kg. Blood samples were collected in the presence of K2EDTA, and were centrifuged to obtain plasma. The plasma was then analyzed for these compounds by LC/MS.
All animals involved in the dosing schedule were weighted and assigned numbers. All suspension formulations were freshly made prior use. Each solution was prepared at 40 mg/mL in 0.5% methyl-cellulose solution in water. The tubes were vortex for 2 min and sonicate for 30 min to achieve a white homogenous suspension.
All animals (n=6/group) were dosed orally in a volume of 5 mL/kg. Following dosing, each rat was bled at each of the designated time points. Blood samples were collected from the tail vain. Blood aliquots (150 μl) were collected in tubes coated with K2EDTA, mixed gently then kept on ice and centrifuged at 2,000 g for 5 minutes at 4° C., within 15 min of collection. The plasma layer was collected and maintained frozen at −70° C. until further processing.
Bioanalytical quantitation using HPLC/triple quadruple mass spectrometry (HPLC-MS) was performed. Plasma concentrations and T½ were calculated and reported.
A 1 mg/mL standard solution in DMSO:methanol (20:80, v/v) was diluted in 50 fold and subsequently serial diluted in 50% methanol water. Aliquots (10 μl) of the serial dilutions were mixed with 190 ul of control plasma for use as a standard curve. Plasma samples (50 μl) and standard samples (non-diluted) were diluted 10× with ice cold acetonitrile containing 40 ng/ml dexamethasone as internal standard. Acetonitrile precipitated samples and standards were vortexed at 5 g for 2 min (IKA vortex), then centrifuged at 5000 g for 10 min.
For 10-fold dilution standard samples: an aliquot of 5 μL sample was added with 45 μL control plasma to obtain the diluted samples. If a 50-fold dilution standard sample was required: an aliquot of 10 μL 10-fold diluted sample was added with 40 μL blank plasma to obtain the final diluted samples. Then, the exaction procedure for diluted samples was same as those for non-diluted samples.
Samples and standards (10 μl) were injected into the LC-MS system, as described below. Concentrations of dose solutions were reported in mg/mL.
LC: 7.5 μl of each sample and standard were injected onto a Waters BEH C18 (2.1×50 mm, 1.7 μm, maintained at 60° C.) column at 0.6 mL/min by an UPLC. The column was equilibrated at 10% acetonitrile. Compounds were eluted with a gradient to 95% acetonitrile. All mobile phase contained 0.025% (v/v) formic acid with 1 mM ammonium acetate.
MS: Column eluent was analyzed by electrospray ionization into a triple quadruple mass spectrometer system. Eluent composition was analyzed for ion pair specifics to the internal standard and the analyte respectively.
Experimental samples were compared with standard curve samples to determine compound concentrations. Average compound concentrations (in ng/mL±standard deviation) were reported for each time-point. […] PK analysis was performed in Phoenix Winnonlin; Cmax were determined as the maximum average concentration observed at a given point, the area under the curve (AUC) was reported for t0 to tlast ours.

Series [3] in a line: Solubility in phosphate buffer pH7.4. Type of series: physicochemical.
Series [4] in a line: Solubility in water and simulated fluids at 37° C. (slurry, HPLC; XRPD of residual solid). Type of series: physicochemical. As to conditions: values based on hemi-sulfate sesqui-hydrate salt, hemisulfate salt. As for the experimental part:
Solubility of Patterns A, B and D were measured in water. The solids were slurried in the fluids for two days and at 37° C. The supernatant was syringe filtered and used for HPLC analysis. For Patterns A and D the solubility measurement was repeated and the sample was taken after 1 hr slurry. A calibration curve was developed using Pattern A. This was not assay corrected and therefore the solubility values are based on the hemi-sulfate, sesqui-hydrate salt.
Both Patterns B and D converted to Pattern A after two days slurry. Pattern D also converted to Pattern A within 1 hour slurry in Fasted state simulated gastric fluid (FaSSGF) or water. […] This could be because of the conversion of Patterns B and D to Pattern A. The solubility data and the resulting XRPD Pattern after the measurement are reported in Table 21.

Series [5] can be described thus: Dynamic Vapor Sorption (DVS). Type of series: physicochemical. As to conditions: hemisulfate salt; for moisture picked up in DVS: 2% to 95% relative humidity, temperature not stated; for XRPD after DVS: Form A: DVS at 25° C. and 40° C. Here is the method: Dynamic Vapor Sorption (DVS) was done using a DVS Intrinsic 1. The sample is loaded into a sample pan and suspended from a microbalance. A typical sample mass for DVS measurement is 25 mg. Nitrogen gas bubbled through distilled water provides the desired relative humidity. A typical measurement comprises the steps: • 1. Equilibrate at 50% RH • 2. 50% to 2%. (50%, 40%, 30%, 20%, 10% and 2%) • a. Hold minimum of 5 mins and maximum of 60 minutes at each humidity. The pass criteria is less than 0.002% change • 3. 2% to 95% (2%, 10%, 20%, 30%, 40%, 50%, 60%, 70%, 80%, 90%, 95%) • b. Hold minimum of 5 mins and maximum of 60 minutes at each humidity. The pass criteria is less than 0.002% change • 4. 95% to 2% (95%, 80%, 70%, 60%, 50%, 40%, 30%, 20%, 10%, 2%) • c. Hold minimum of 5 mins and maximum of 60 minutes at each humidity. The pass criteria is less than 0.002% change • 5. 2% to 50% (2%, 10%, 20%, 30%, 40%, 50%) • d. Hold minimum of 5 mins and maximum of 60 minutes at each humidity. The pass criteria is less than 0.002% change
(§1) The water content by Karl Fisher was about 5.3%. […] A DVS isotherm taken at 40° C. was essentially the same as the one at 25° C. […] Humidity test was conducted on Form A with exposure to 11%, 48%, and 75% relative humidity at 40° C. for 2 weeks followed by XRPD analysis. […] Crystallographic data for Form A is as follows:
Form B tends to hold substantial amount of solvent.
(§2) Form D was determined to be anhydrous with a melting peak at 239° C. See e.g., FIG. 9. DVS of Pattern D was performed and solid picked up about 2% moisture from 2% to 95% relative humidity.

Series [6] in a line: Humidity / desiccant exposure test followed by XRPD analysis. Type of series: physicochemical. As to conditions: one week exposure to 75% relative humidity at 40° C. As for the experimental part:
FIG. 5 (i) depicts X-ray powder diffraction pattern (XRPD) overlay for crystalline hemisulfate salt Form A and after exposure to 11%, 48%, and 75% relative humidity and 40° C. for two weeks. […] FIG. 5 (ii) depicts XRPD overlay for crystalline hemisulfate salt Form A and after exposure to phosphorus pentoxide (P2O5) granules at room temperature and 50° C. for one week, as well as ambient temperature in a vial for 24 hrs.
as §1, §2

≈ marks a conversion by molar mass, not a printed value. Where a name gives a salt, the structure may show the parent alone. Read-outs that look alike come from different tables or passages of the source.

By solubility is commonly meant how much of the substance goes into solution per volume. Turning to `O=C(c1ccc(NS(=O)(=O)c2cccc3cccnc23)cc1)N1CCN(CC2CC2)CC1` [Compound 1, N-(4-(4-(cyclopropylmethyl)piperazine-1-carbonyl)phenyl)quinoline-8-sulfonamide], the solubility at 2 days in series [1] (MeOAc:MeOH (1:1) and 2.5 vol % water, 23 °C, MeOAc:MeOH (1:1) and 2.5 vol % water, 23° C.) stood at 15 mg/mL (≈ 33.3 mM); in series [1] (MeOAc:MeOH (1:1) and 2.5 vol % water, 50 °C, MeOAc:MeOH (1:1) and 2.5 vol % water, 50° C.), 36 mg/mL (≈ 79.9 mM); in series [1] (MeOAc:MeOH (1:1), 23 °C, MeOAc:MeOH (1:1), 23° C.), 15 mg/mL (≈ 33.3 mM); in series [1] (MeOAc:MeOH (1:1), 50 °C, MeOAc:MeOH (1:1), 50° C.), 34 mg/mL (≈ 75.5 mM). The “impact of 2.5 vol % water on solubility” value in series [1] (MeOAc:MeOH (1:1)) is “did not have any impact”.
The Cmax is the highest concentration seen after dosing. `O=C(c1ccc(NS(=O)(=O)c2cccc3cccnc23)cc1)N1CCN(CC2CC2)CC1` [Crystalline Form A (micronized), 1-(cyclopropylmethyl)-4-(4-(quinoline-8-sulfonamido)benzoyl)piperazin-1-ium hemisulfate sesquihydrate]: in series [2] (hemisulfate sesquihydrate), the AUC 0-last came out at 478 ± 87.9 µg·h/mL, the Cmax is reported as 36700 ± 6800 ng/mL, the “AUC fold higher compared to crystalline free-base of Compound 1” value came out at 3.8 fold and the “Cmax fold higher compared to crystalline free-base of Compound 1” value came out at 2 fold. Besides, the “solubility compared to crystalline free-base of Compound 1” value in series [3] is given as “more soluble”.
For the compound `O=C(c1ccc(NS(=O)(=O)c2cccc3cccnc23)cc1)N1CCN(CC2CC2)CC1` [Crystalline Form A (unmicronized), 1-(cyclopropylmethyl)-4-(4-(quinoline-8-sulfonamido)benzoyl)piperazin-1-ium hemisulfate sesquihydrate], in series [2] (hemisulfate sesquihydrate), the AUC 0-last turned out to be 356 ± 82.9 µg·h/mL, the Cmax is listed as 29800 ± 5300 ng/mL, the “AUC fold higher compared to crystalline free-base of Compound 1” value is on record as 2.7 fold and the “Cmax fold higher compared to crystalline free-base of Compound 1” value worked out at 1.6 fold. The “solubility compared to crystalline free-base of Compound 1” value in series [3] is given as “more soluble”.
Turning to `O=C(c1ccc(NS(=O)(=O)c2cccc3cccnc23)cc1)N1CCN(CC2CC2)CC1` [Crystalline free-base of Compound 1, N-(4-(4-(cyclopropylmethyl)piperazine-1-carbonyl)phenyl)quinoline-8-sulfonamide], in series [2], the AUC 0-last is 125 ± 85.8 µg·h/mL and the Cmax is 17900 ± 3600 ng/mL.
Turning to `O=C(c1ccc(NS(=O)(=O)c2cccc3cccnc23)cc1)N1CCN(CC2CC2)CC1` [Form B, N-(4-(4-(cyclopropylmethyl)piperazine-1-carbonyl)phenyl)quinoline-8-sulfonamide hemisulfate salt], the Solubility was 6.53 mg Solid/mL solvent in series [4] (FaSSGF, slurry time 2 days, listed as B); 0.20 mg Solid/mL solvent in series [4] (FaSSIF, slurry time 2 days, listed as B); 3.02 mg Solid/mL solvent in series [4] (Water, slurry time 2 days, listed as B). Besides, the “moisture picked up in DVS” value in series [5] is listed as “about 14%”. Moreover, the “XRPD after DVS” value in series [5] is recorded as “converted to a different Form K”.
Take `O=C(c1ccc(NS(=O)(=O)c2cccc3cccnc23)cc1)N1CCN(CC2CC2)CC1` [Form D, N-(4-(4-(cyclopropylmethyl)piperazine-1-carbonyl)phenyl)quinoline-8-sulfonamide hemisulfate salt]: the “form after humidity exposure” value in series [6] is listed as “did not change the form”. Moreover, the Solubility in series [4] (FaSSGF, slurry time 1 hr) is 5.43 mg Solid/mL solvent; in series [4] (FaSSGF, slurry time 2 days, listed as D), 5.94 mg Solid/mL solvent; in series [4] (FaSSIF, slurry time 2 days, listed as D), 3.49 mg Solid/mL solvent; in series [4] (Water, slurry time 1 hr), 2.62 mg Solid/mL solvent; in series [4] (Water, slurry time 2 days, listed as D), 2.71 mg Solid/mL solvent. In addition, in series [5] (listed as Pattern D), the “moisture picked up in DVS” value is recorded as “about 2%”. Also, the “XRPD after DVS” value in series [5] (listed as Pattern D) is “remained unchanged”.

Source of the values: patent US11254652B2, “Crystalline forms of N-(4-(4-(cyclopropymethyl)piperazine-1-carbonyl)phenyl)quinoline-8-sulfonamide” (Agios Pharmaceuticals, Inc., priority 2017, dated 2022).
